According to PubChem BioAssay (NCI):
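The compound was tested at five concentrations on cells cultured in 96-well plates, with a 48-hour exposure period. GI50 is the concentration that inhibits growth by half. TGI denotes the concentration required for complete inhibition of growth.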

Tests used:
Assay in all cases: growth of human tumour cells (NCI), 48 h
786-0 renal = test system: 786-0 renal
A498 renal = test system: A498 renal
A549 NSCLC = test system: A549 NSCLC
ACHN renal = test system: ACHN renal
BT-549 breast = test system: BT-549 breast
CAKI-1 renal = test system: CAKI-1 renal
CCRF-CEM leukemia = test system: CCRF-CEM leukemia
COLO 205 colon = test system: COLO 205 colon
DU-145 prostate = test system: DU-145 prostate
EKVX NSCLC = test system: EKVX NSCLC
HCC-2998 colon = test system: HCC-2998 colon
HCT-116 colon = test system: HCT-116 colon
HCT-15 colon = test system: HCT-15 colon
HL-60(TB) leukemia = test system: HL-60(TB) leukemia
HOP-62 NSCLC = test system: HOP-62 NSCLC
HOP-92 NSCLC = test system: HOP-92 NSCLC
HS 578T breast = test system: HS 578T breast
HT29 colon = test system: HT29 colon
IGROV1 ovarian = test system: IGROV1 ovarian
K-562 leukemia = test system: K-562 leukemia
KM12 colon = test system: KM12 colon
LOX IMVI melanoma = test system: LOX IMVI melanoma
M14 melanoma = test system: M14 melanoma
MALME-3M melanoma = test system: MALME-3M melanoma
MCF7 breast = test system: MCF7 breast
MDA-MB-231 breast = test system: MDA-MB-231 breast
MDA-MB-435 = test system: MDA-MB-435
MOLT-4 leukemia = test system: MOLT-4 leukemia
NCI-H226 lung = test system: NCI-H226 lung
NCI-H23 lung = test system: NCI-H23 lung
NCI-H460 lung = test system: NCI-H460 lung
NCI-H522 lung = test system: NCI-H522 lung
NCI/ADR-RES ovarian = test system: NCI/ADR-RES ovarian
OVCAR-3 ovarian = test system: OVCAR-3 ovarian
OVCAR-4 ovarian = test system: OVCAR-4 ovarian
OVCAR-5 ovarian = test system: OVCAR-5 ovarian
OVCAR-8 ovarian = test system: OVCAR-8 ovarian
PC-3 prostate = test system: PC-3 prostate
RPMI-8226 leukemia = test system: RPMI-8226 leukemia
RXF 393 renal = test system: RXF 393 renal
SF-268 CNS = test system: SF-268 CNS
SF-295 CNS = test system: SF-295 CNS
SF-539 CNS = test system: SF-539 CNS
SK-MEL-2 melanoma = test system: SK-MEL-2 melanoma
SK-MEL-28 melanoma = test system: SK-MEL-28 melanoma
SK-MEL-5 melanoma = test system: SK-MEL-5 melanoma
SK-OV-3 ovarian = test system: SK-OV-3 ovarian
SN12C renal = test system: SN12C renal
SNB-19 CNS = test system: SNB-19 CNS
SNB-75 CNS = test system: SNB-75 CNS
SR leukemia = test system: SR leukemia
SW-620 colon = test system: SW-620 colon
T-47D breast = test system: T-47D breast
TK-10 renal = test system: TK-10 renal
U251 CNS = test system: U251 CNS
UACC-257 melanoma = test system: UACC-257 melanoma
UACC-62 melanoma = test system: UACC-62 melanoma
UO-31 renal = test system: UO-31 renal

## O=C1NC(=O)/C(=C/c2c(Cl)nc3sccn23)S1
786-0 renal
  GI50: > 85.8 µM
  TGI: > 100 µM
A498 renal
  GI50: 1.01 µM
  TGI: 46.1 µM
A549 NSCLC
  GI50: > 100 µM
  TGI: > 100 µM
ACHN renal
  GI50: > 100 µM
  TGI: > 100 µM
BT-549 breast
  GI50: > 84.5 µM
  TGI: > 100 µM
CAKI-1 renal
  GI50: > 100 µM
  TGI: > 100 µM
CCRF-CEM leukemia
  GI50: 71.2 µM
  TGI: > 100 µM
COLO 205 colon
  GI50: > 86.6 µM
  TGI: > 100 µM
DU-145 prostate
  GI50: > 100 µM
  TGI: > 100 µM
EKVX NSCLC
  GI50: > 66.1 µM
  TGI: > 100 µM
HCC-2998 colon
  GI50: > 100 µM
  TGI: > 100 µM
HCT-116 colon
  GI50: 80.4 µM
  TGI: > 100 µM
HCT-15 colon
  GI50: > 74.9 µM
  TGI: > 100 µM
HL-60(TB) leukemia
  GI50: > 100 µM
  TGI: > 100 µM
HOP-62 NSCLC
  GI50: > 100 µM
  TGI: > 100 µM
HOP-92 NSCLC
  GI50: 20.9 µM
  TGI: > 100 µM
HS 578T breast
  GI50: 30.9 µM
  TGI: > 100 µM
HT29 colon
  GI50: > 100 µM
  TGI: > 100 µM
IGROV1 ovarian
  GI50: > 100 µM
  TGI: > 100 µM
K-562 leukemia
  GI50: 68.9 µM
  TGI: > 100 µM
KM12 colon
  GI50: > 100 µM
  TGI: > 100 µM
LOX IMVI melanoma
  GI50: 57 µM
  TGI: > 100 µM
M14 melanoma
  GI50: 66.4 µM
  TGI: > 100 µM
MALME-3M melanoma
  GI50: > 59.7 µM
  TGI: > 100 µM
MCF7 breast
  GI50: > 65.4 µM
  TGI: > 100 µM
MDA-MB-231 breast
  GI50: 28.7 µM
  TGI: > 100 µM
MDA-MB-435
  GI50: 97.3 µM
  TGI: > 100 µM
MOLT-4 leukemia
  GI50: > 100 µM
  TGI: > 100 µM
NCI-H226 lung
  GI50: 14.2 µM
  TGI: > 100 µM
NCI-H23 lung
  GI50: > 56.4 µM
  TGI: > 100 µM
NCI-H460 lung
  GI50: > 75.8 µM
  TGI: > 100 µM
NCI-H522 lung
  GI50: > 100 µM
  TGI: > 100 µM
NCI/ADR-RES ovarian
  GI50: > 100 µM
  TGI: > 100 µM
OVCAR-3 ovarian
  GI50: > 70.9 µM
  TGI: > 100 µM
OVCAR-4 ovarian
  GI50: > 100 µM
  TGI: > 100 µM
OVCAR-5 ovarian
  GI50: > 74.6 µM
  TGI: > 100 µM
OVCAR-8 ovarian
  GI50: > 100 µM
  TGI: > 100 µM
PC-3 prostate
  GI50: > 87.7 µM
  TGI: > 100 µM
RPMI-8226 leukemia
  GI50: 36.1 µM
  TGI: > 100 µM
RXF 393 renal
  GI50: > 65.7 µM
  TGI: > 100 µM
SF-268 CNS
  GI50: > 57.1 µM
  TGI: > 100 µM
SF-295 CNS
  GI50: 64.4 µM
  TGI: > 100 µM
SF-539 CNS
  GI50: > 31.8 µM
  TGI: > 83.8 µM
SK-MEL-2 melanoma
  GI50: > 100 µM
  TGI: > 100 µM
SK-MEL-28 melanoma
  GI50: > 82.4 µM
  TGI: > 100 µM
SK-MEL-5 melanoma
  GI50: 35.5 µM
  TGI: > 100 µM
SK-OV-3 ovarian
  GI50: > 70.1 µM
  TGI: > 100 µM
SN12C renal
  GI50: > 51.5 µM
  TGI: > 100 µM
SNB-19 CNS
  GI50: > 79.1 µM
  TGI: > 100 µM
SNB-75 CNS
  GI50: > 100 µM
  TGI: > 100 µM
SR leukemia
  GI50: 37.6 µM
  TGI: > 100 µM
SW-620 colon
  GI50: > 100 µM
  TGI: > 100 µM
T-47D breast
  GI50: 31.3 µM
  TGI: > 75.8 µM
TK-10 renal
  GI50: > 57.6 µM
  TGI: > 100 µM
U251 CNS
  GI50: > 81.1 µM
  TGI: > 100 µM
UACC-257 melanoma
  GI50: > 91.9 µM
  TGI: > 100 µM
UACC-62 melanoma
  GI50: 42.3 µM
  TGI: > 100 µM
UO-31 renal
  GI50: > 100 µM
  TGI: > 100 µM
